Columns and labels:
[1] = tested on: thrombin-binding aptamer (TBA) (DNA, G4) GGTTGGTGTGGTTGG; assay: fluorescence of dye-aptamer complex; conditions: 300 mM NaCl, 5 mM MgCl2, 10 mM KCl; 20 mM Tris-Cl pH 7.5, 25 °C; dye 25 nM, aptamer 10 nM
[2] = tested on: theophylline aptamer (RNA, aptamer) GGUGAUACCAGCAUCGUCUUGAUGCCCUUGGCAGCACC; assay: fluorescence of dye-aptamer complex; conditions: 140 mM NaCl, 5 mM KCl, 5 mM MgCl2; 20 mM Tris-Cl pH 7.5, 25 °C; dye 25 nM, aptamer 10 nM
[3] = tested on: theophylline aptamer (RNA, aptamer) GGUGAUACCAGCAUCGUCUUGAUGCCCUUGGCAGCACC; assay: fluorescence change of staining dye; conditions: 140 mM NaCl, 5 mM KCl, 5 mM MgCl2, 20 mM Tris-Cl pH 7.5, 25 °C, aptamer 10 nM
[4] = tested on: ATP aptamer (DNA, aptamer) ATAGCGGAGGAAGGATACCTGGGGGAGTATAT; assay: fluorescence of dye-aptamer complex; conditions: 300 mM NaCl, 5 mM MgCl2, 10 mM KCl; 20 mM Tris-Cl pH 7.5, 25 °C; dye 25 nM, aptamer 10 nM
[5] = tested on: ATP aptamer (DNA, aptamer) ATAGCGGAGGAAGGATACCTGGGGGAGTATAT; assay: fluorescence change of staining dye; conditions: 300 mM NaCl, 5 mM MgCl2, 10 mM KCl, 20 mM Tris-Cl pH 7.5, 25 °C, Hoechst 33258 25 nM as indicator, aptamer 10 nM

For CN1C(=Cc2cc[n+](C)c3ccccc23)Sc2ccccc21, the binding [1] was “yes” and the binding [2] was “yes”.

Cn1c(=O)c2[nH]cnc2n(C)c1=O was tested, and the binding ([3]; TO or SYBR Green 25 nM as indicator) was “yes”.

With C[n+]1c(C=C2C=CN(CCC[N+](C)(C)CCC[N+](C)(C)CCCN3C=CC(=Cc4oc5ccccc5[n+]4C)c4ccccc43)c3ccccc32)oc2ccccc21 the binding [1] was “yes” and the binding [4] was “yes”.

For CN1CCN(c2ccc3nc(-c4ccc5nc(-c6ccc(O)cc6)[nH]c5c4)[nH]c3c2)CC1, the binding [4] was “yes”.

For Nc1nc2c(ncn2[C@@H]2O[C@H](COP(=O)(O)OP(=O)(O)OP(=O)(O)O)[C@@H](O)[C@H]2O)c(=O)[nH]1, the binding ([5]; ~5% change, within error) was “no”.

With Nc1ncnc2c1ncn2[C@@H]1O[C@H](COP(=O)(O)OP(=O)(O)OP(=O)(O)O)[C@@H](O)[C@H]1O the binding [5] was “yes”.

For Cn1c(=O)c2c(ncn2C)n(C)c1=O, the binding ([3]; TO 25 nM as indicator, huge excess of caffeine) was “no”.

In the case of CCCN(CCCN(C)C)c1cc(C=C2Sc3ccccc3N2C)c2ccccc2[n+]1-c1ccccc1, the binding [1] is reported as “yes” and the binding [2] is reported as “yes”.
